Mutagenic call data for 15 molecules are collected here from PubChem BioAssay AID1259407 (Chemical Carcinogenesis Research Information System (CCRIS), 2018).

Calls of active or inactive are those of the source. How the calls were made is not given here.

The subject of this series is CCRIS mutagenicity, Ames/micronucleus/aberration tests. As to the kind of experiment: CCRIS mutagenicity studies.
Setting [1] is: Test System: AMES SALMONELLA TYPHIMURIUM, Strain/Indicator: TA98, Metabolic Activation: HAMSTER, LIVER, S-9, AROCLOR 1254 (10%), Method: PREINCUBATION
[2] abbreviates: Test System: AMES SALMONELLA TYPHIMURIUM, Strain/Indicator: TA98, Metabolic Activation: NONE, Method: PREINCUBATION
Setting [3] is: Test System: AMES SALMONELLA TYPHIMURIUM, Strain/Indicator: TA98, Metabolic Activation: RAT, LIVER, S-9, AROCLOR 1254 (10%), Method: PREINCUBATION
Setting [4] is: Test System: AMES SALMONELLA TYPHIMURIUM, Strain/Indicator: TA100, Metabolic Activation: HAMSTER, LIVER, S-9, AROCLOR 1254 (10%), Method: PREINCUBATION
The mark [5] stands for this setting: Test System: AMES SALMONELLA TYPHIMURIUM, Strain/Indicator: TA100, Metabolic Activation: NONE, Method: PREINCUBATION
Where [6] appears, read: Test System: AMES SALMONELLA TYPHIMURIUM, Strain/Indicator: TA100, Metabolic Activation: RAT, LIVER, S-9, AROCLOR 1254 (10%), Method: PREINCUBATION
The mark [7] stands for this setting: Test System: AMES SALMONELLA TYPHIMURIUM, Strain/Indicator: TA1535, Metabolic Activation: HAMSTER, LIVER, S-9, AROCLOR 1254 (10%), Method: PREINCUBATION
The mark [8] stands for this setting: Test System: AMES SALMONELLA TYPHIMURIUM, Strain/Indicator: TA1535, Metabolic Activation: NONE, Method: PREINCUBATION
Where [9] appears, read: Test System: AMES SALMONELLA TYPHIMURIUM, Strain/Indicator: TA1535, Metabolic Activation: RAT, LIVER, S-9, AROCLOR 1254 (10%), Method: PREINCUBATION
Where [10] appears, read: Test System: AMES SALMONELLA TYPHIMURIUM, Strain/Indicator: TA1537, Metabolic Activation: HAMSTER, LIVER, S-9, AROCLOR 1254 (10%), Method: PREINCUBATION
Setting [11] is: Test System: AMES SALMONELLA TYPHIMURIUM, Strain/Indicator: TA1537, Metabolic Activation: NONE, Method: PREINCUBATION
[12] abbreviates: Test System: AMES SALMONELLA TYPHIMURIUM, Strain/Indicator: TA1537, Metabolic Activation: RAT, LIVER, S-9, AROCLOR 1254 (10%), Method: PREINCUBATION
Where [13] appears, read: Test System: AMES SALMONELLA TYPHIMURIUM, Strain/Indicator: TA98, Metabolic Activation: RAT, LIVER, S-9, AROCLOR 1254, Method: STANDARD PLATE.

Take `CCCCCCCCOP(=O)(OCCCCCCCC)OCCCCCCCC`: the mutagenic call under setting [1] was “inactive; negative”; the mutagenic call under setting [2] is “inactive; negative”; the mutagenic call under setting [3] was “inactive; negative”; the mutagenic call under setting [4] is “inactive; negative”; the mutagenic call under setting [5] was “inactive; negative”; the mutagenic call under setting [6] was “inactive; negative”. Also, the mutagenic call is “inactive; negative” under setting [7]; “inactive; negative” under setting [8]; “inactive; negative” under setting [9]; “inactive; negative” under setting [10]; “inactive; negative” under setting [11]; “inactive; negative” under setting [12].

As to `Nc1ccc(-c2cc([N+](=O)[O-])c(N)c(Cl)c2Cl)cc1`, the mutagenic call by setting is: (Test System: Ames Salmonella typhimurium, Strain/Indicator: TA98, Metabolic Activation: None, Method: Preincubation) “active; positive. weak response”; (Test System: Ames Salmonella typhimurium, Strain/Indicator: TA98, Metabolic Activation: Rat, Liver, S-9, Phenobarbital and 5,6-benzoflavone, Method: Preincubation) “active; positive”; (Test System: Ames Salmonella typhimurium, Strain/Indicator: TA100, Metabolic Activation: None, Method: Preincubation) “inactive; negative”; (Test System: Ames Salmonella typhimurium, Strain/Indicator: TA100, Metabolic Activation: Rat, Liver, S-9, Phenobarbital and 5,6-benzoflavone, Method: Preincubation) “active; positive”; (Test System: Ames Salmonella typhimurium, Strain/Indicator: YG1024, Metabolic Activation: None, Method: Preincubation) “active; positive”; (Test System: Ames Salmonella typhimurium, Strain/Indicator: YG1024, Metabolic Activation: Rat, Liver, S-9, Phenobarbital and 5,6-benzoflavone, Method: Preincubation) “active; positive”. The mutagenic call reads like this: (Test System: Ames Salmonella typhimurium, Strain/Indicator: YG1029, Metabolic Activation: None, Method: Preincubation) “inactive; negative”; (Test System: Ames Salmonella typhimurium, Strain/Indicator: YG1029, Metabolic Activation: Rat, Liver, S-9, Phenobarbital and 5,6-benzoflavone, Method: Preincubation) “active; positive”.

`CC(=O)O[C@]1(C)C(=O)OC/C2=C/CN(C)CC[C@@H](OC(=O)C3(C[C@H]1C)O[C@@H]3C)C2=O` (stereo partly specified): the mutagenic call (Test System: UDS RAT HEPATOCYTES, Strain/Indicator: THY INCORP, Metabolic Activation: NONE, Method: AUTORADIOGRAPHY) was “active; positive”.

As to `CCCCCCCC(=O)N=c1sn(C(=O)CCCCCCC)c2ccc([N+](=O)[O-])cc12`, the mutagenic call (Test System: AMES SALMONELLA TYPHIMURIUM, Strain/Indicator: TA100, Metabolic Activation: S-9, Method: STANDARD PLATE) is “active; positive”.

For `Nc1nc(=O)n([C@@H]2O[C@H](CO)[C@@H](O)[C@H]2O)cc1O`, the mutagenic call under setting [5] is “inactive; negative”.

For `Oc1c(Cl)cccc1Cl`, the mutagenic call is “inactive; negative” (Test System: CHINESE HAMSTER V-79, Strain/Indicator: V-79/6-THIOGUANINE, Metabolic Activation: CELL-MEDIATED, Method: STANDARD PLATE); “inactive; negative” (Test System: CHINESE HAMSTER V-79, Strain/Indicator: V-79/6-THIOGUANINE, Metabolic Activation: NONE, Method: STANDARD PLATE); “inactive; negative” (Test System: CHINESE HAMSTER V-79, Strain/Indicator: V-79/6-THIOGUANINE, Metabolic Activation: PRIMARY RAT HEPATOCYTES, Method: STANDARD PLATE).

Consider `O=P(OCCCl)(OCCCl)OCCCl`, for which the mutagenic call (End Point: IN VITRO CHROMOSOMAL ABERRATIONS, Test System: CHINESE HAMSTER OVARY CELLS, Metabolic Activation: NONE) is “inactive; negative”; the mutagenic call (End Point: IN VITRO CHROMOSOMAL ABERRATIONS, Test System: CHINESE HAMSTER OVARY CELLS, Metabolic Activation: RAT, LIVER, S-9, AROCLOR 1254) is “inactive; negative”; the mutagenic call under setting [1] is “inactive; negative”; the mutagenic call under setting [2] was “inactive; negative”; the mutagenic call under setting [3] was “inactive; negative”; the mutagenic call under setting [4] is “inactive; negative”. Further, the mutagenic call is, setting by setting: under setting [5], “inactive; negative”; under setting [6], “inactive; negative”; (Test System: AMES SALMONELLA TYPHIMURIUM, Strain/Indicator: TA100, Metabolic Activation: RAT, LIVER, S-9, PCB, Method: STANDARD PLATE) “active; positive”; under setting [7], “inactive; negative”; under setting [8], “inactive; negative”; under setting [9], “inactive; negative”. For the same molecule, the mutagenic call runs as follows: (Test System: AMES SALMONELLA TYPHIMURIUM, Strain/Indicator: TA1535, Metabolic Activation: RAT, LIVER, S-9, PCB, Method: STANDARD PLATE) “active; positive”; under setting [10], “inactive; negative”; under setting [11], “inactive; negative”; under setting [12], “inactive; negative”.

With `BrCCCCCBr`, the mutagenic call under setting [2] was “inactive; negative”; the mutagenic call (Test System: AMES SALMONELLA TYPHIMURIUM, Strain/Indicator: TA98, Metabolic Activation: RAT LIVER S-9, PHENOBARBITAL AND BETA-NAPHTHOFLAVONE, Method: PREINCUBATION) was “inactive; negative”; the mutagenic call under setting [5] is “inactive; negative”; the mutagenic call (Test System: AMES SALMONELLA TYPHIMURIUM, Strain/Indicator: TA100, Metabolic Activation: RAT LIVER S-9, PHENOBARBITAL AND BETA-NAPHTHOFLAVONE, Method: PREINCUBATION) is “inactive; negative”; the mutagenic call under setting [11] was “inactive; negative”; the mutagenic call (Test System: AMES SALMONELLA TYPHIMURIUM, Strain/Indicator: TA1537, Metabolic Activation: RAT LIVER S-9, PHENOBARBITAL AND BETA-NAPHTHOFLAVONE, Method: PREINCUBATION) was “inactive; negative”.

Turning to `Cc1cc2c(nc(N)n2C)c2ncc(-c3ccccc3)nc12`, the mutagenic call under setting [13] was “active; positive”.

Take `CSc1cc(SC)c(N)c(C)c1N`: the mutagenic call under setting [13] is “active; positive”.

On to `Oc1ccc2c3cc4ccccc4cc3c3ccccc3c2c1O`, for which the mutagenic call (Test System: AMES SALMONELLA TYPHIMURIUM, Strain/Indicator: TA100, Metabolic Activation: RAT, LIVER, S-9, AROCLOR 1254, Method: PREINCUBATION) is “active; positive”.

For the molecule `CC\C=C/C=C\C=C/C=C\C=C/OCCC`, the mutagenic call under setting [5] is “active; positive”.

Turning to `O=[N+]([O-])c1cc(-c2ccccc2)ccc1O`, the mutagenic call under setting [2] was “inactive; negative”.

Turning to `Clc1ccc(CCC2CO2)cc1` (stereo unspecified), the mutagenic call under setting [5] is “inactive; negative”; the mutagenic call (Test System: AMES SALMONELLA TYPHIMURIUM, Strain/Indicator: TA100, Metabolic Activation: NONE, Method: STANDARD PLATE) is “active; positive”; the mutagenic call under setting [8] is “inactive; negative”; the mutagenic call (Test System: AMES SALMONELLA TYPHIMURIUM, Strain/Indicator: TA1535, Metabolic Activation: NONE, Method: STANDARD PLATE) was “active; positive”.

On to `O=c1ccn([C@@H]2O[C@H](COP(=O)(O)O)[C@@H](O)[C@H]2O)c(=O)[nH]1`, for which the mutagenic call (Test System: AMES SALMONELLA TYPHIMURIUM, Strain/Indicator: TA97, Metabolic Activation: NONE, Method: PREINCUBATION) is “inactive; negative”; the mutagenic call (Test System: AMES SALMONELLA TYPHIMURIUM, Strain/Indicator: TA97, Metabolic Activation: RAT, LIVER, S-9, AROCLOR 1254, Method: PREINCUBATION) is “inactive; negative”; the mutagenic call (Test System: AMES SALMONELLA TYPHIMURIUM, Strain/Indicator: TA102, Metabolic Activation: NONE, Method: PREINCUBATION) is “inactive; negative”; the mutagenic call (Test System: AMES SALMONELLA TYPHIMURIUM, Strain/Indicator: TA102, Metabolic Activation: RAT, LIVER, S-9, AROCLOR 1254, Method: PREINCUBATION) was “inactive; negative”.
